# Laboratory results: US5670538A, “Use of prodelphinidins for obtaining medicaments intended for the treatment of arthrosis” (Laboratoires Dolisos, priority 1992, dated 1997)
# Where two headings read alike, the source gives them in different places.
# Tests used:
# [1] = Production of OH° hydroxyl radicals (gamma irradiation, KMB substrate, ethylene by gas chromatography); assay type: biochemical; conditions: for % inhibition of the production of hydroxyl radicals: Substrate: KMB, relative to the controls
# Protocol: 8. Production of OH° hydroxyl radicals
# The products are dissolved in 10 ml flasks at the required concentration in phosphate buffer: 6.6.10^-2 M, pH 7.4 in the presence of alpha keto methiolbutyric acid (10^-3 M: KMB). After the flasks have been hermetically sealed, the samples are irradiated with gamma rays provided by a ^137 Cs source.
# The OH° radicals produced by the gamma radiation react with the KMB to produce the ethylene detected by a gas chromatograph. The height of the ethylene peak is proportional to the quantity of free radicals formed in the medium (Weis et al., 1978).
# [2] = tested on: human articular chondrocytes; assay: Radioimmunoassay of cartilaginous proteoglycans (PG) produced in tridimensional culture of human chondrocytes; assay type: cell-based; conditions: for PG in the clusters over 12 days: 0-12 days
# Text: The model used for testing the proanthocyanidols, namely the tridimensional culture of human chondrocytes allows chondrorepair to be quantified by the production of matrix substances: type II collagen, proteoglycans, and chondroresorption by the reduction in the levels of prostaglandin E2 and of OH° and O°2 type free radicals produced.
# 1. Tridimensional culture of human chondrocytes
# The technique used has been described in detail (Bassleer et al., 1986).
# Briefly, human articular chondrocytes are cultivated in DMEM (Dulbecco's Modification of Eagle's Medium--ICN--Gand, Belgium) with either Ultroser G 1% (GIBCO, Gand, Belgium) or 10% of foetal calf serum (ICN--Gand--Belgium), and 50 μg of ascorbic acid/ml added to it. The cartilage originates from the apparently normal zone of heads of human femur suffering from arthrosis, immediately after an operation carried out to insert a total hip prosthesis; it can also originate from the head of a healthy femur, but which has undergone a traumatism and has had to be replaced. This cartilage is then digested by clostridial collagenase 1 mg/ml (Boehringer-Mannheim, Germany) in a buffer (NaCl 120 mM, CaCl2 1 mM, KCl 5 mM, KH2 PO4 1 mM, NaHCO3 25 mM, glucose 2 mM and Hepes 30 mM, pH 7.4) for 24 hours. After 6 successive washings and centrifugations, the chondrocytes, isolated from their matrix, are cultured in flasks (10^6 cells/2 ml of culture medium) placed on a gyrator (10 rpm). The cultures are kept at 37° C. in an atmosphere of air 95%-CO2 5% (Bassleer et al., 1986). Cultivated under these conditions, after 4 to 5 days the chondrocytes form a tridimensional cluster in each flask. These clusters, which at first have a flocculent appearance, then tend to condense during the culture. After two weeks, their diameter is, in general, from 1 to 2 mm.
# The fresh weight of the clusters increases with the duration of the culture, above all during the few first days.
# 2. Radioimmunoassay of cartilaginous proteoglycans (PG)
# The PGs are measured with a radioimmunoassay (RIA) which is specific and sensitive to human cartilaginous PGs (Gysen et al. 1984). The PGs were extracted from human cartilage, according to the methods described by Roughley et al., (1981) and by Bayliss and Venn (1980). The antiserum against the cartilaginous PGs was obtained from the rabbit according to the technique of Vaitukaitis et al. (1971). The radioimmunoassay is carried out in a 0.4 ml volume consisting of 0.1 ml of tracer solution (15000 to 20000 cpm ^125 I-PG, labelled by the chloramine T method (Greenwood, 1973). 0.1 ml of anti-PG antiserum diluted to 1/5000 in phosphate-buffered saline (PBS-50 mM PO4, 150 mM NaCl ), containing BSA (5 g/l bovine serum albumin and 6.7 mM sodium azide) (incubation buffer) and 0.2 ml of several dilutions of the culture medium or of the cluster extract or also of the antigen (0.5 -500 ng/tube).
# After four days at 4° C., the free PGs* (radioactive PGs) are separated from the PG*-antibody complexes by double precipitation (Franchimont et al., 1983).
# The sensitivity of the assay is 0.6 ng/tube. The accuracy of measurement is of the order of 4%. The coefficients of the intra- and inter assay variation are less than 10% and 20% respectively.
# The antibodies are directed against the antigenic determinants of the central protein of PG. There is a complete crossed reaction with human PGs of cartilage from the ribs, vertebral disks and trachea, even with PGs extracted from veins or arteries. There is no cross reaction with glycosaminoglycans or with PGs extracted from foetal tissues or the small PGs from bone.
# The PGs are measured directly in the culture medium. As for the chondrocyte clusters, they are washed 3 times in a phosphate-buffered saline (PBS-50 mM PO4, 150 mM NaCl pH 7.4) containing protease inhibitors (Oegema et al., 1975:100 mM 6-aminohexanoic acid, 10 mM EDTA, 50 mM benzamidine hydrochloride, 5.10^-8 M trypsin inhibitor, 6.7 mM sodium azide and 200 U/ml superoxide dismutase). […]
# [3] = Antilipoperoxidizing activity (gamma irradiation, linoleic acid substrate, pentane); assay type: biochemical; conditions: for % inhibition of pentane release from linoleic acid (lipid peroxidation): Substrate: Linoleic acid, relative to the controls
# Protocol: 9. Antilipoperoxidizing activity
# Similar to the preceding anti-radical method but where the KMB is replaced by linoleic acid (C18: 2), the gamma radiation releases pentane which is analyzed. The height of the pentane peak is proportional to the quantity free of radicals formed in the medium.
smiles,measurement,setting,value
"Oc1cc(O)c2c(c1)O[C@H](c1cc(O)c(O)c(O)c1)[C@@H](O)[C@@H]2c1c(O)cc(O)c2c1O[C@H](c1cc(O)c(O)c(O)c1)[C@@H](O)[C@@H]2c1c(O)cc(O)c2c1O[C@H](c1cc(O)c(O)c(O)c1)[C@@H](O)C2 [Substance Ic, GC-(4 alpha→8) GC-(4 a→8)-GC]",% inhibition of the production of hydroxyl radicals,[1]; 10^-3 M,74%
same,% inhibition of the production of hydroxyl radicals,[1]; 10^-4 M,39%
same,% inhibition of the production of hydroxyl radicals,[1]; 10^-5 M,20%
same,"Production of free radicals from KMB, effect in words",[1]; Table 22,significantly inhibits
same,PG in the clusters over 12 days,"[2]; 1% Ultroser G, 1 μg/ml",886 ± 114 ng/μg DNA
same,PG in the clusters over 12 days,"[2]; 1% Ultroser G, 10 μg/ml",1046 ± 74 ng/μg DNA
same,PG in the clusters over 12 days,"[2]; 1% Ultroser G, 100 μg/ml",1184 ± 33 ng/μg DNA
same,"PGs released in the culture medium, effect in words","[2]; 1% Ultroser G, 1 μg/ml",significant effect
same,PGs released in the culture medium,"[2]; 1% Ultroser G, culture time 0-4 days, 1 μg/ml",15.9 ± 1.15 μg/μg DNA/96 h
same,PGs released in the culture medium,"[2]; 1% Ultroser G, culture time 0-4 days, 10 μg/ml",19.1 ± 1.2 μg/μg DNA/96 h
same,PGs released in the culture medium,"[2]; 1% Ultroser G, culture time 0-4 days, 100 μg/ml",21.1 ± 1.0 μg/μg DNA/96 h
same,PGs released in the culture medium,"[2]; 1% Ultroser G, culture time 4-8 days, 1 μg/ml",3.7 ± 0.15 μg/μg DNA/96 h
same,PGs released in the culture medium,"[2]; 1% Ultroser G, culture time 4-8 days, 10 μg/ml",4.4 ± 0.52 μg/μg DNA/96 h
same,PGs released in the culture medium,"[2]; 1% Ultroser G, culture time 4-8 days, 100 μg/ml",4.9 ± 0.45 μg/μg DNA/96 h
same,PGs released in the culture medium,"[2]; 1% Ultroser G, culture time 8-12 days, 1 μg/ml",1.32 ± 0.7 μg/μg DNA/96 h
same,PGs released in the culture medium,"[2]; 1% Ultroser G, culture time 8-12 days, 10 μg/ml",1.53 ± 0.15 μg/μg DNA/96 h
same,PGs released in the culture medium,"[2]; 1% Ultroser G, culture time 8-12 days, 100 μg/ml",1.75 ± 0.05 μg/μg DNA/96 h
same,"Proteoglycans released during the 12 days of culture, Abs","[2]; 1% Ultroser G, cumulative, 1 μg/ml",20.9 μg/μg DNA/12 days
same,"Proteoglycans released during the 12 days of culture, Abs","[2]; 1% Ultroser G, cumulative, 10 μg/ml",25 μg/μg DNA/12 days
same,"Proteoglycans released during the 12 days of culture, Abs","[2]; 1% Ultroser G, cumulative, 100 μg/ml",27.8 μg/μg DNA/12 days
same,"Concentrations of PG in the clusters, effect in words","[2]; 1% Ultroser G, three concentrations studied",significantly stimulated and in a dose-dependent way
same,activity at 1 µg/mL,"[2]; Homo sapiens, Chondrocyte, 288 h, 1% Ultroser G, cumulative, 1 μg/ml, control = 100, read-out: Proteoglycans released during the 12 days of culture, %",127%
same,activity at 10 µg/mL,"[2]; Homo sapiens, Chondrocyte, 288 h, 1% Ultroser G, cumulative, 10 μg/ml, control = 100, read-out: Proteoglycans released during the 12 days of culture, %",150%
same,activity at 100 µg/mL,"[2]; Homo sapiens, Chondrocyte, 288 h, 1% Ultroser G, cumulative, 100 μg/ml, control = 100, read-out: Proteoglycans released during the 12 days of culture, %",170%
same,activity at 10 µg/mL,"[2]; Homo sapiens, Chondrocyte, foetal calf serum, Table 14, 0-4 days, 10 μg/ml, control = 100%, read-out: PG in the culture medium, % of control",120%
same,activity at 100 µg/mL,"[2]; Homo sapiens, Chondrocyte, foetal calf serum, Table 14, 0-4 days, 100 μg/ml, control = 100%, read-out: PG in the culture medium, % of control",160%
same,activity at 10 µg/mL,"[2]; Homo sapiens, Chondrocyte, foetal calf serum, Table 14, 4-8 days, 10 μg/ml, control = 100%, read-out: PG in the culture medium, % of control",118%
same,activity at 100 µg/mL,"[2]; Homo sapiens, Chondrocyte, foetal calf serum, Table 14, 4-8 days, 100 μg/ml, control = 100%, read-out: PG in the culture medium, % of control",121%
same,activity at 10 µg/mL,"[2]; Homo sapiens, Chondrocyte, foetal calf serum, Table 15, 0-4 days, 10 μg/ml, control = 100%, read-out: PG in the culture medium, % of control",132%
same,activity at 100 µg/mL,"[2]; Homo sapiens, Chondrocyte, foetal calf serum, Table 15, 0-4 days, 100 μg/ml, control = 100%, read-out: PG in the culture medium, % of control",140%
same,activity at 10 µg/mL,"[2]; Homo sapiens, Chondrocyte, foetal calf serum, Table 15, 4-8 days, 10 μg/ml, control = 100%, read-out: PG in the culture medium, % of control",117%
same,activity at 100 µg/mL,"[2]; Homo sapiens, Chondrocyte, foetal calf serum, Table 15, 4-8 days, 100 μg/ml, control = 100%, read-out: PG in the culture medium, % of control",138%
same,activity at 10 µg/mL,"[2]; Homo sapiens, Chondrocyte, foetal calf serum, Table 16, 0-8 days, 10 μg/ml, control = 100%, read-out: PG in the clusters over 8 days, % of control",117%
same,activity at 100 µg/mL,"[2]; Homo sapiens, Chondrocyte, foetal calf serum, Table 16, 0-8 days, 100 μg/ml, control = 100%, read-out: PG in the clusters over 8 days, % of control",132%
same,activity at 10 µg/mL,"[2]; Homo sapiens, Chondrocyte, foetal calf serum, Table 17, 0-8 days, 10 μg/ml, control = 100%, read-out: PG in the clusters over 8 days, % of control",125%
same,activity at 100 µg/mL,"[2]; Homo sapiens, Chondrocyte, foetal calf serum, Table 17, 0-8 days, 100 μg/ml, control = 100%, read-out: PG in the clusters over 8 days, % of control",139%
same,"PGs in the clusters, effect in words","[2]; foetal calf serum, 10 and 100 μg/ml",significantly increased
same,PG in the culture medium,"[2]; foetal calf serum, Table 14, 0-4 days, 10 μg/ml",7.8 ± 1.51 μg/μg DNA - 96 H
same,PG in the culture medium,"[2]; foetal calf serum, Table 14, 0-4 days, 100 μg/ml",10.4 ± 1.19 μg/μg DNA - 96 H
same,PG in the culture medium,"[2]; foetal calf serum, Table 14, 4-8 days, 10 μg/ml",2.34 ± 0.08 μg/μg DNA - 96 H
same,PG in the culture medium,"[2]; foetal calf serum, Table 14, 4-8 days, 100 μg/ml",2.40 ± 0.35 μg/μg DNA - 96 H
same,PG in the culture medium,"[2]; foetal calf serum, Table 15, 0-4 days, 10 μg/ml",7.0 ± 1.19 μg/μg DNA - 96 H
same,PG in the culture medium,"[2]; foetal calf serum, Table 15, 0-4 days, 100 μg/ml",7.5 ± 0.96 μg/μg DNA - 96 H
same,PG in the culture medium,"[2]; foetal calf serum, Table 15, 4-8 days, 10 μg/ml",2.0 ± 0.17 μg/μg DNA - 96 H
same,PG in the culture medium,"[2]; foetal calf serum, Table 15, 4-8 days, 100 μg/ml",2.4 ± 0.25 μg/μg DNA - 96 H
same,PG in the clusters over 8 days,"[2]; foetal calf serum, Table 16, 0-8 days, 10 μg/ml",915 ± 75 ng/μg DNA
same,PG in the clusters over 8 days,"[2]; foetal calf serum, Table 16, 0-8 days, 100 μg/ml",1035 ± 121 ng/μg DNA
same,PG in the clusters over 8 days,"[2]; foetal calf serum, Table 17, 0-8 days, 10 μg/ml",718.2 ± 62.61 ng/μg DNA
same,PG in the clusters over 8 days,"[2]; foetal calf serum, Table 17, 0-8 days, 100 μg/ml",799.5 ± 85.9 ng/μg DNA
same,% inhibition of pentane release from linoleic acid (lipid peroxidation),[3]; 10^-3 M,91%
same,% inhibition of pentane release from linoleic acid (lipid peroxidation),[3]; 10^-4 M,40%
same,% inhibition of pentane release from linoleic acid (lipid peroxidation),[3]; 10^-5 M,0%
same,"Production of free radicals from linoleic acid, effect in words",[3]; Table 23,significantly inhibits
